# PMC3109722 (Journal of medicinal chemistry, 2011)
# “Also recorded” adds a separate entry of the source.
# Assays:
# PHF13 = target: T1, PHF13 (Homo sapiens, UniProt Q86YI8); test: AlphaScreen histone peptide competition, PHF13; type: binding; details: average of at least two independent trials ± SD
# T1 sequence (Q86YI8 232-280 limits assumed): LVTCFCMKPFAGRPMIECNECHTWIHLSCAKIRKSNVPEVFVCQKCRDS
# L3MBTL3 [1] = target: T2, L3MBTL3 (Homo sapiens, UniProt Q96JM7); test: ITC binding to L3MBTL3; details: data not shown
# T2 sequence (Q96JM7 225-555 limits assumed): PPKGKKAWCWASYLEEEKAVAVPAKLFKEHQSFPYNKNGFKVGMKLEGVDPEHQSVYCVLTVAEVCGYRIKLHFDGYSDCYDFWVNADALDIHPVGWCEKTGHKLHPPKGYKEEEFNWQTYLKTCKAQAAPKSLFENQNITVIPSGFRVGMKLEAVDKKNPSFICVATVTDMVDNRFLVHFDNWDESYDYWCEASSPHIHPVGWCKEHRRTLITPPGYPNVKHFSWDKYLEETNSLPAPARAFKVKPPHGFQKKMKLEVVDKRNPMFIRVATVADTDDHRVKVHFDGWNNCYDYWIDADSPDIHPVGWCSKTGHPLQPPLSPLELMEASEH
# L3MBTL3 [2] = target: T2, L3MBTL3; test: AlphaScreen histone peptide competition, L3MBTL3; type: binding; details: average of at least two independent trials ± SD
# L3MBTL1 [3] = target: T3, L3MBTL1 (Homo sapiens, UniProt Q9Y468); test: AlphaScreen histone peptide competition, L3MBTL1; details: sulfonamide series; footnote a of Table 2: no binding by AlphaScreen
# T3 sequence (Q9Y468 200-522 isoform Q9Y468-1 limits assumed): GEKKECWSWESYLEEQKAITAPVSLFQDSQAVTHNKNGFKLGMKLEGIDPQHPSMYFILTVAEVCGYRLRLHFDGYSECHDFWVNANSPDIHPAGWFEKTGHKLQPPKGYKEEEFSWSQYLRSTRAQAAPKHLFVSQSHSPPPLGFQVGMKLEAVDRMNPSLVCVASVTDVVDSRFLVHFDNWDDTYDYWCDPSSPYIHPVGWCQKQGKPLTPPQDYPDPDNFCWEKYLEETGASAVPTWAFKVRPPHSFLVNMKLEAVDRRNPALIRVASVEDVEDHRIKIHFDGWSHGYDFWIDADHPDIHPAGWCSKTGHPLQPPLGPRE
# L3MBTL1 [4] = target: T3, L3MBTL1; test: ITC binding to wt L3MBTL1; details: single experiments, standard deviations from least square curve fitting
smiles,measurement,setting,value
O=C(NCCCCCN1CCCC1)c1cncc(Br)c1 [Compound 7],PHF13 IC50,PHF13,weak binding
same,Binding to L3MBTL3 by ITC,L3MBTL3 [1],Binding was confirmed
same,L3MBTL3 IC50,L3MBTL3 [2],weak binding
O=S(=O)(NCCOCCN1CCCC1)c1cccc(Br)c1 [Compound 8],Binding by AlphaScreen,L3MBTL1 [3],did not show any activity; also recorded: No Binding ^a
O=S(=O)(NCCCCCN1CCOCC1)c1cccc(Br)c1 [Compound 9],Binding by AlphaScreen,L3MBTL1 [3],did not show any activity; also recorded: No Binding ^a
C[C@H]1CCN(CCCCCNS(=O)(=O)c2cccc(Br)c2)C1 [Compound 12],3MBTL1 Kd,L3MBTL1 [4],No Binding Interaction
